19 compounds from BindingDB's records for doi:10.1016/S0960-894X(97)10107-X (1997) can be followed below.

Bounds are passed on as bounds.

This test concerns the target 1,3-beta-glucan synthase (Candida albicans). The test is described as follows: In vitro inhibition of 1,3-beta-glucan synthase in Candida albicans membrane assay.
As a reminder, the IC50 is the point on the concentration scale where inhibition reaches its midpoint. Higher therefore signals weaker potency. In turn, `CCC(C)CC(C)CCCCCCCCC(=O)N[C@@H]1C[C@@H](O)[C@@H](O)NC(=O)[C@@H]2[C@@H](O)CCN2C(=O)[C@H]([C@@H](O)CC(N)=O)NC(=O)[C@H]([C@@H](O)[C@H](O)c2ccc(O)c(N)c2)NC(=O)[C@@H]2C[C@@H](O)CN2C(=O)[C@H]([C@@H](C)O)NC1=O` (some centres undefined) [Pneumocandin analogue] came in with an IC50 of 40 nM.
`C=Cc1cc(C[C@H](O)[C@@H]2NC(=O)[C@@H]3C[C@@H](O)CN3C(=O)[C@H]([C@@H](C)O)NC(=O)[C@H](NC(=O)CCCCCCCCC(C)CC(C)CC)C[C@@H](O)CNC(=O)[C@@H]3[C@@H](O)CCN3C(=O)[C@H]([C@@H](O)CC(N)=O)NC2=O)ccc1O` (some centres undefined) [Pneumocandin analogue] gave a 50% inhibitory concentration (IC50) of 80 nM.
Under `CCC(C)CC(C)CCCCCCCCC(=O)N[C@@H]1C[C@@H](O)CNC(=O)[C@@H]2[C@@H](O)CCN2C(=O)[C@H]([C@@H](O)CC(N)=O)NC(=O)[C@H]([C@@H](O)Cc2ccc(O)c(CCO)c2)NC(=O)[C@@H]2C[C@@H](O)CN2C(=O)[C@H]([C@@H](C)O)NC1=O` (some centres undefined) [Pneumocandin analogue] stands 60 nM; under `CCc1cc(C[C@H](O)[C@@H]2NC(=O)[C@@H]3C[C@@H](O)CN3C(=O)[C@H]([C@@H](C)O)NC(=O)[C@H](NC(=O)CCCCCCCCC(C)CC(C)CC)C[C@@H](O)CNC(=O)[C@@H]3[C@@H](O)CCN3C(=O)[C@H]([C@@H](O)CC(N)=O)NC2=O)ccc1O` (some centres undefined) [Pneumocandin analogue], 260 nM.
The figure for `CCC(C)CC(C)CCCCCCCCC(=O)N[C@@H]1C[C@@H](O)CNC(=O)[C@@H]2[C@@H](O)CCN2C(=O)[C@H]([C@@H](O)CC(N)=O)NC(=O)[C@H]([C@@H](O)Cc2ccc(O)c(I)c2)NC(=O)[C@@H]2C[C@@H](O)CN2C(=O)[C@H]([C@@H](C)O)NC1=O` (some centres undefined) [Pneumocandin analogue] is 100 nM.
Under `CCC(C)CC(C)CCCCCCCCC(=O)N[C@@H]1C[C@@H](O)CNC(=O)[C@@H]2[C@@H](O)CCN2C(=O)[C@H]([C@@H](O)CC(N)=O)NC(=O)[C@H]([C@@H](O)Cc2ccc(O)c(CCN)c2)NC(=O)[C@@H]2C[C@@H](O)CN2C(=O)[C@H]([C@@H](C)O)NC1=O` (some centres undefined) [Pneumocandin analogue] stands 200 nM.
Consider `CCC(C)CC(C)CCCCCCCCC(=O)N[C@@H]1C[C@@H](O)CNC(=O)[C@@H]2[C@@H](O)CCN2C(=O)[C@H]([C@@H](O)CC(N)=O)NC(=O)[C@H]([C@@H](O)Cc2ccc(O)cc2)NC(=O)[C@@H]2C[C@@H](O)CN2C(=O)[C@H]([C@@H](C)O)NC1=O` (some centres undefined) [Pneumocandin analogue], for which half-maximal inhibition (IC50) required 70 nM. Against the preceding compound, the IC50 is about 2.9-fold lower.
In turn, `CCC(C)CC(C)CCCCCCCCC(=O)N[C@@H]1C[C@@H](O)CNC(=O)[C@@H]2[C@@H](O)CCN2C(=O)[C@H]([C@@H](O)CC(N)=O)NC(=O)[C@H]([C@@H](O)Cc2ccc(O)c(C(=O)OC)c2)NC(=O)[C@@H]2C[C@@H](O)CN2C(=O)[C@H]([C@@H](C)O)NC1=O` (some centres undefined) [Pneumocandin analogue] gave an IC50 of 3000 nM.
Under `CCCc1cc(C[C@H](O)[C@@H]2NC(=O)[C@@H]3C[C@@H](O)CN3C(=O)[C@H]([C@@H](C)O)NC(=O)[C@H](NC(=O)CCCCCCCCC(C)CC(C)CC)C[C@@H](O)CNC(=O)[C@@H]3[C@@H](O)CCN3C(=O)[C@H]([C@@H](O)CC(N)=O)NC2=O)ccc1O` (some centres undefined) [Pneumocandin analogue] stands 600 nM; under `CCC(C)CC(C)CCCCCCCCC(=O)N[C@@H]1C[C@@H](O)[C@@H](O)NC(=O)[C@@H]2[C@@H](O)CCN2C(=O)[C@H]([C@@H](O)CC(N)=O)NC(=O)[C@H]([C@@H](O)[C@H](O)c2ccc(O)c(NC(=O)CCC(=O)O)c2)NC(=O)[C@@H]2C[C@@H](O)CN2C(=O)[C@H]([C@@H](C)O)NC1=O` (some centres undefined) [Pneumocandin analogue], 150 nM; under `CCC(C)CC(C)CCCCCCCCC(=O)N[C@@H]1C[C@@H](O)[C@@H](O)NC(=O)[C@@H]2[C@@H](O)CCN2C(=O)[C@H]([C@@H](O)CC(N)=O)NC(=O)[C@H]([C@@H](O)[C@H](O)c2ccc(O)c(NC(=O)CCN)c2)NC(=O)[C@@H]2C[C@@H](O)CN2C(=O)[C@H]([C@@H](C)O)NC1=O` (some centres undefined) [Pneumocandin analogue], 70 nM.
Under `CCC(C)CC(C)CCCCCCCCC(=O)N[C@@H]1C[C@@H](O)[C@@H](O)NC(=O)[C@@H]2[C@@H](O)CCN2C(=O)[C@H]([C@@H](O)CC(N)=O)NC(=O)[C@H]([C@@H](O)[C@H](O)c2ccc(O)c([N+](=O)[O-])c2)NC(=O)[C@@H]2C[C@@H](O)CN2C(=O)[C@H]([C@@H](C)O)NC1=O` (some centres undefined) [Pneumocandin analogue] stands 2900 nM; under `CCC(C)CC(C)CCCCCCCCC(=O)N[C@@H]1C[C@@H](O)CNC(=O)[C@@H]2[C@@H](O)CCN2C(=O)[C@H]([C@@H](O)CC(N)=O)NC(=O)[C@H]([C@@H](O)Cc2ccc(O)c(N)c2)NC(=O)[C@@H]2C[C@@H](O)CN2C(=O)[C@H]([C@@H](C)O)NC1=O` (some centres undefined) [Pneumocandin analogue], 50 nM.
Under `CCC(C)CC(C)CCCCCCCCC(=O)N[C@@H]1C[C@@H](O)[C@@H](O)NC(=O)[C@@H]2[C@@H](O)CCN2C(=O)[C@H]([C@@H](O)CC(N)=O)NC(=O)[C@H]([C@@H](O)[C@H](O)c2ccc(O)c(I)c2)NC(=O)[C@@H]2C[C@@H](O)CN2C(=O)[C@H]([C@@H](C)O)NC1=O` (some centres undefined) [Pneumocandin analogue] stands 100 nM; under `CCC(C)CC(C)CCCCCCCCC(=O)N[C@@H]1C[C@@H](O)CNC(=O)[C@@H]2[C@@H](O)CCN2C(=O)[C@H]([C@@H](O)CC(N)=O)NC(=O)[C@H]([C@@H](O)Cc2ccc(O)c(/C=C/C(=O)OC)c2)NC(=O)[C@@H]2C[C@@H](O)CN2C(=O)[C@H]([C@@H](C)O)NC1=O` (some centres undefined) [Pneumocandin analogue], 150 nM.
Compound `CCC(C)CC(C)CCCCCCCCC(=O)N[C@@H]1C[C@@H](O)[C@@H](O)NC(=O)[C@@H]2[C@@H](O)CCN2C(=O)[C@H]([C@@H](O)CC(N)=O)NC(=O)[C@H]([C@@H](O)[C@H](O)c2cc(I)c(O)c(I)c2)NC(=O)[C@@H]2C[C@@H](O)CN2C(=O)[C@H]([C@@H](C)O)NC1=O` (some centres undefined) [Pneumocandin analogue] registered an IC50 of over 10000 nM.
Under `CCC(C)CC(C)CCCCCCCCC(=O)N[C@@H]1C[C@@H](O)[C@@H](O)NC(=O)[C@@H]2[C@@H](O)CCN2C(=O)[C@H]([C@@H](O)CC(N)=O)NC(=O)[C@H]([C@@H](O)[C@H](O)c2ccc(O)c(NC(=O)CN)c2)NC(=O)[C@@H]2C[C@@H](O)CN2C(=O)[C@H]([C@@H](C)O)NC1=O` (some centres undefined) [Pneumocandin analogue] stands 35 nM; under `CCC(C)CC(C)CCCCCCCCC(=O)N[C@@H]1C[C@@H](O)CNC(=O)[C@@H]2[C@@H](O)CCN2C(=O)[C@H]([C@@H](O)CC(N)=O)NC(=O)[C@H]([C@@H](O)Cc2ccc(O)c(C=O)c2)NC(=O)[C@@H]2C[C@@H](O)CN2C(=O)[C@H]([C@@H](C)O)NC1=O` (some centres undefined) [Pneumocandin analogue], over 5000 nM.
As for `CCC(C)CC(C)CCCCCCCCC(=O)N[C@@H]1C[C@@H](O)CNC(=O)[C@@H]2[C@@H](O)CCN2C(=O)[C@H]([C@@H](O)CC(N)=O)NC(=O)[C@H]([C@@H](O)Cc2ccc(O)c([N+](=O)[O-])c2)NC(=O)[C@@H]2C[C@@H](O)CN2C(=O)[C@H]([C@@H](C)O)NC1=O` (some centres undefined) [Pneumocandin analogue], the IC50 was found to be 4000 nM.
